From patent US10660877B2 (BRISTOL-MYERS SQUIBB COMPANY, priority 2016, dated 2020)
Where two headings read alike, the source gives them in different places.

Columns and labels:
human TLR9 = human TLR9 (Homo sapiens (Human), UniProt Q9NR96); assay: TLR9 inhibition reporter assay (HEK-Blue cells, SEAP reporter, ODN2006 stimulation);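 also: compounds tested over 0.05 nM to 50 µM, 22 h incubation, inhibition taken as SEAP signal drop from agonist plus DMSO wells toward a known inhibitor control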
human TLR8 = human TLR8 (Homo sapiens (Human), UniProt Q9NR97); assay: TLR8 inhibition reporter assay (HEK-Blue cells, SEAP reporter, R848 stimulation);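 also: compounds tested from 0.05 nM to 50 µM, 22 h at 37 °C, SEAP measured with HEK-Blue Detection, inhibition relative to agonist plus DMSO versus a known inhibitor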
Chain of human TLR8 (Q9NR97 27-1041): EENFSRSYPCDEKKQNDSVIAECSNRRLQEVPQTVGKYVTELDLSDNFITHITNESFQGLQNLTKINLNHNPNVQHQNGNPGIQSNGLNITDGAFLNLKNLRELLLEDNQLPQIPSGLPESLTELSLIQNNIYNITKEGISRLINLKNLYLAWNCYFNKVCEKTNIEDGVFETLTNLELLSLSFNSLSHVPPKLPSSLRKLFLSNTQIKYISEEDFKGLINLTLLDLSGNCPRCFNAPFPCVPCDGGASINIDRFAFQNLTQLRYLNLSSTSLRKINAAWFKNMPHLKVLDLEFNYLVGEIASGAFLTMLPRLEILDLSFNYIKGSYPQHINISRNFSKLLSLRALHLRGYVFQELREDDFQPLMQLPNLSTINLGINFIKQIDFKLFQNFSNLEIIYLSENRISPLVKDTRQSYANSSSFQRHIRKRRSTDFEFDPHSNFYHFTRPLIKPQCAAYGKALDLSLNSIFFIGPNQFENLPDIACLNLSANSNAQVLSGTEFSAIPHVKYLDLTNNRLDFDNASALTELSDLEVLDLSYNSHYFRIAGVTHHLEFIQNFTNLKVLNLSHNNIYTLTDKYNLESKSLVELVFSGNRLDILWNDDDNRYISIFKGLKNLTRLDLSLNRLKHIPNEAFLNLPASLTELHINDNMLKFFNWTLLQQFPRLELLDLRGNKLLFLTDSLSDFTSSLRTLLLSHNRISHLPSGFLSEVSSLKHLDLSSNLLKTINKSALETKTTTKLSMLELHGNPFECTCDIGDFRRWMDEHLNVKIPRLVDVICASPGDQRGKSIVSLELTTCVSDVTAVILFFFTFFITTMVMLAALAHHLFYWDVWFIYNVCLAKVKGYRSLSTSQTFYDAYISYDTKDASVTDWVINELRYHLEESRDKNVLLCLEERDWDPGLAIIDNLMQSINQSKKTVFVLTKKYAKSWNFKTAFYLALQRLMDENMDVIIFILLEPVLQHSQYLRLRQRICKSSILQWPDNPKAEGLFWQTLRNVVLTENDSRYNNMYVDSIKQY

human TLR7 = human TLR7 (Homo sapiens (Human), UniProt Q9NYK1); assay: TLR7 inhibition reporter assay (HEK-Blue cells, SEAP reporter, gardiquimod stimulation); type: cell-based
Chain of human TLR7 (Q9NYK1 27-1049): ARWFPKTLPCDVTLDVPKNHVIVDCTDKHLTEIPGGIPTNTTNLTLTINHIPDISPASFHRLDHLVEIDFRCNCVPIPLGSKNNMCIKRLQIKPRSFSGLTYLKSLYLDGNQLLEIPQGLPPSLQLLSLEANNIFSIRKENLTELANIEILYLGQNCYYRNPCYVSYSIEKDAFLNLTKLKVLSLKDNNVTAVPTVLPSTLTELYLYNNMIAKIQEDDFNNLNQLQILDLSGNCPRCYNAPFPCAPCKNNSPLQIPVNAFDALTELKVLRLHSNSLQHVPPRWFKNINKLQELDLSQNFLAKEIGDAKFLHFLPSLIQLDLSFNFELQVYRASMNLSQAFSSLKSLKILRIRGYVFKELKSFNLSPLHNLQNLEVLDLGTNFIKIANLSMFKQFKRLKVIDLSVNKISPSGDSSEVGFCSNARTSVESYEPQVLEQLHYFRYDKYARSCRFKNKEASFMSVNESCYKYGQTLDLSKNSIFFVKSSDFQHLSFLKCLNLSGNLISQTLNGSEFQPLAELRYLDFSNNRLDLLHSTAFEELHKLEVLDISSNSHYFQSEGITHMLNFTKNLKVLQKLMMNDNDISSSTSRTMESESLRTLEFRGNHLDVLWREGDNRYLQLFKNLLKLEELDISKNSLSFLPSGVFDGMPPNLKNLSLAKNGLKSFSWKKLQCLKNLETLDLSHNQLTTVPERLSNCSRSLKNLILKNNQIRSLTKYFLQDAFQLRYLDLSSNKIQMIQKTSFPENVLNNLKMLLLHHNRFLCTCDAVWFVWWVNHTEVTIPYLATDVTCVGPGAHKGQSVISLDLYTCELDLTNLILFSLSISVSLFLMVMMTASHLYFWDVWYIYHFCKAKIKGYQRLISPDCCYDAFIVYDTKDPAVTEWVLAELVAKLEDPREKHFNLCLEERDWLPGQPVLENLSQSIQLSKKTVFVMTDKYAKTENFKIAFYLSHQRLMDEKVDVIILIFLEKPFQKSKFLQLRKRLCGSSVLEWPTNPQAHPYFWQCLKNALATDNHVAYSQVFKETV

[1] = read-out: TLR9 IC50, HEK-Blue cells, ODN2006 5 nM
[2] = read-out: TLR8 IC50, HEK-Blue cells, R848 15.9 μM
[3] = HEK-Blue cells, gardiquimod 7.5 μM
[4] = read-out: TLR9 IC50, HEK-Blue cells overexpressing human TLR9, ODN2006 5 nM
[5] = read-out: TLR8 IC50, HEK-Blue cells overexpressing human TLR8, R848 15.9 μM
[6] = HEK-Blue cells overexpressing human TLR7, gardiquimod 7.5 μM

Chain of human TLR9 (Q9NR96 26-1032): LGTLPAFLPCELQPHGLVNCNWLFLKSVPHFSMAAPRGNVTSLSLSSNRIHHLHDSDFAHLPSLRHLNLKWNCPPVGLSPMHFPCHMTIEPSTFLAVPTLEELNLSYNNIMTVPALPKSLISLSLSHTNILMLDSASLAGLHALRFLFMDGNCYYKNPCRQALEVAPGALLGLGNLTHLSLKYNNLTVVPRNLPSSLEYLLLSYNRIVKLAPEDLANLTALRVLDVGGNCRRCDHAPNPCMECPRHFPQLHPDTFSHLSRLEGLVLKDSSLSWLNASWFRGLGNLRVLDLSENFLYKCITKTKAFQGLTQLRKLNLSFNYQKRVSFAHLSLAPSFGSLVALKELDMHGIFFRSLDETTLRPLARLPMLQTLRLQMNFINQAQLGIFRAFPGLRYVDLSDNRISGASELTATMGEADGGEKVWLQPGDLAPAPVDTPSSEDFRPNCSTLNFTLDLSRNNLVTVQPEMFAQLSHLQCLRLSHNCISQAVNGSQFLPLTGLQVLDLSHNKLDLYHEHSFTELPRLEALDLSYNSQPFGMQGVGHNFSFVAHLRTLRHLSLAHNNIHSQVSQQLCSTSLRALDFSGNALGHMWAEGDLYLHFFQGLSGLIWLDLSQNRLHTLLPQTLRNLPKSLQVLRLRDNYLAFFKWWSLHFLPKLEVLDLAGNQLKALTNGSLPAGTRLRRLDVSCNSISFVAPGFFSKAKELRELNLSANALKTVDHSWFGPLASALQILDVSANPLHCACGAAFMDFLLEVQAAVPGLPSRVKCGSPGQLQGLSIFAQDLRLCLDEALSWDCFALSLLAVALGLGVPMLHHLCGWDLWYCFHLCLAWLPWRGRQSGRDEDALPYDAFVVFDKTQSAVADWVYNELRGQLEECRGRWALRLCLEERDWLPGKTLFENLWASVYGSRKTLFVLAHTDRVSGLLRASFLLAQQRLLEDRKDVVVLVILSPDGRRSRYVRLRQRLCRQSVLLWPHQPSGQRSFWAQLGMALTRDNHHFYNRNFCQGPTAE

IC50 (human TLR9; [1]) [nM] | IC50 (human TLR8; [2]) [nM] | IC50 (human TLR7; [3]) [nM] | IC50 (human TLR9; [4]) [nM] | IC50 (human TLR8; [5]) [nM] | IC50 (human TLR7; [6]) [nM] | IC50 (human TLR9; TLR9 IC50, HEK-Blue cells overexpressing human TLR9, ODN2006 5 nM) [nM] | IC50 (human TLR8; TLR8 IC50, HEK-Blue cells overexpressing human TLR8, R848 15.9 μM) [nM] | SMILES
917 | 10.7 | 16.7 | – | – | – | – | – | Cc1cc(-c2[nH]c3ccc(C4CCN(C(C)CF)CC4)cc3c2C(C)C)ccn1 (stereo not drawn) [Example 864, 5-(1-(1-fluoropropan-2-yl)piperidin-4-yl)-3-isopropyl-2-(2-methylpyridin-4-yl)-1H-indole]
– | – | – | 3300 | 185 | 3120 | – | – | CNCCN1CCC(c2ccc3[nH]c(-c4cc(OC)ncc4F)c(C)c3c2)CC1 [Example 756, 2-(4-(2-(5-fluoro-2-methoxypyridin-4-yl)-3-methyl-1H-indol-5-yl)piperidin-1-yl)-N-methylethan-1-amine]
– | – | – | – | – | 35.3 | 755 | 10.5 | Cc1cc(-c2[nH]c3ccc(C4CCN(Cc5cncnc5)CC4)cc3c2C(C)C)cc(C)n1 [Example 434, 2-(2,6-dimethylpyridin-4-yl)-3-isopropyl-5-(1-(pyrimidin-5-ylmethyl)piperidin-4-yl)-1H-indole]
– | – | – | 147 | 4.7 | 7 | – | – | Cc1cc(-c2[nH]c3ccc(C4CCN(CC5CCN(C(C)C)C5)CC4)cc3c2C(C)C)cc(C)n1 (stereo not drawn) [Example 465, 2-(2,6-dimethylpyridin-4-yl)-3-isopropyl-5-(1-((1-isopropylpyrrolidin-3-yl)methyl)piperidin-4-yl)-1H-indole]
– | – | – | 3620 | 33.6 | 10.1 | – | – | Cc1cc(-c2[nH]c3ccc(C4CCN(C5COC5)CC4)cc3c2C(C)C)c(F)c(C)n1 [Example 729, 2-(3-fluoro-2,6-dimethylpyridin-4-yl)-3-isopropyl-5-(1-(oxetan-3-yl)piperidin-4-yl)-1H-indole]
– | – | – | 389 | 11.8 | 1.7 | – | – | Cc1cc(-c2[nH]c3ccc(C4CCN(C(=O)CN5CCCC(C)C5)CC4)cc3c2C(C)C)cc(C)n1 (stereo not drawn) [Example 378, 1-(4-(2-(2,6-dimethylpyridin-4-yl)-3-isopropyl-1H-indol-5-yl)piperidin-1-yl)-2-(3-methylpiperidin-1-yl)ethan-1-one]
– | – | – | 970 | 6.4 | 6.3 | – | – | Cc1cc(-c2[nH]c3ccc(C4CCN(CC(=O)NC5(C)COC5)CC4)cc3c2C(C)C)cc(C)n1 [Example 233, 2-(4-(2-(2,6-dimethylpyridin-4-yl)-3-isopropyl-1H-indol-5-yl)piperidin-1-yl)-N-(3-methyloxetan-3-yl)acetamide]
– | – | – | 15800 | 99.9 | 6.2 | – | – | Cc1cc(-c2[nH]c3ccc(C4CCN(C(=O)c5cccnc5)CC4)cc3c2C(C)C)cc(C)n1 [Example 112, (4-(2-(2,6-dimethylpyridin-4-yl)-3-isopropyl-1H-indol-5-yl)piperidin-1-yl)(pyridin-3-yl)methanone]
– | – | – | 142 | 18.4 | 4.2 | – | – | Cc1cc(-c2[nH]c3ccc(C4CCN(C(=O)CN(C)C)CC4)cc3c2C2CC2)cc(C)n1 [Example 590, 1-(4-(3-cyclopropyl-2-(2,6-dimethylpyridin-4-yl)-1H-indol-5-yl)piperidin-1-yl)-2-(dimethylamino)ethan-1-one]
– | – | – | > 50000 | 16 | 55.8 | – | – | Cc1cc(-c2[nH]c3ccc(C4CCN(Cc5ncco5)CC4)cc3c2C(C)C)c(F)cn1 [Example 700, 2-((4-(2-(5-fluoro-2-methylpyridin-4-yl)-3-isopropyl-1H-indol-5-yl)piperidin-1-yl)methyl)oxazole]
– | – | – | 402 | 35.4 | 7.8 | – | – | Cc1cc(-c2[nH]c3ccc(C4CCN(CC(=O)N(C)CCC5(O)CCCC5)CC4)cc3c2C(C)C)cc(C)n1 [Example 303, 2-(4-(2-(2,6-dimethylpyridin-4-yl)-3-isopropyl-1H-indol-5-yl)piperidin-1-yl)-N-(2-(1-hydroxycyclopentyl)ethyl)-N-methylacetamide]
– | – | – | 1260 | 63.1 | 8.2 | – | – | Cc1cc(-c2[nH]c3ccc(C4CCN(CC(=O)N5CCC[C@@H]5CO)CC4)cc3c2C(C)C)cc(C)n1 [Example 302, (R)-2-(4-(2-(2,6-dimethylpyridin-4-yl)-3-isopropyl-1H-indol-5-yl)piperidin-1-yl)-1-(2-(hydroxymethyl)pyrrolidin-1-yl) ethan-1-one]
– | – | – | 3690 | 19.2 | 10.6 | – | – | CCc1cc(-c2[nH]c3ccc(C4CCNCC4)cc3c2C(C)C)c(F)cn1 [Example 482, 2-(2-ethyl-5-fluoropyridin-4-yl)-3-isopropyl-5-(piperidin-4-yl)-1H-indole]
– | – | – | 2370 | 58.8 | 207 | – | – | CCc1c(-c2ccnc(OC)c2)[nH]c2ccc(C3CCNCC3)cc12 [Example 61, 3-ethyl-2-(2-methoxypyridin-4-yl)-5-(piperidin-4-yl)-1H-indole]
– | – | – | 752 | 47.9 | 17.4 | – | – | Cc1cc(-c2[nH]c3ccc(C4CCN(C(=O)CNCCC(C)(C)C)CC4)cc3c2C(C)C)cc(C)n1 [Example 347, 2-((3,3-dimethylbutyl)amino)-1-(4-(2-(2,6-dimethylpyridin-4-yl)-3-isopropyl-1H-indol-5-yl)piperidin-1-yl)ethan-1-one]
46700 | 1940 | 958 | – | – | – | – | – | CCc1c(-c2ccnc(C)c2)[nH]c2ccc(C3CCN(CC(=O)O)CC3)cc12 [Example 876, 2-(4-(3-ethyl-2-(2-methylpyridin-4-yl)-1H-indol-5-yl)piperidin-1-yl)acetic acid]
– | – | – | 41400 | 150 | 10.7 | – | – | Cc1cc(-c2[nH]c3ccc(C4CCN(C(=O)C[C@H](C)O)CC4)cc3c2C(C)C)cc(C)n1 [Example 109, (S)-1-(4-(2-(2,6-dimethylpyridin-4-yl)-3-isopropyl-1H-indol-5-yl)piperidin-1-yl)-3-hydroxybutan-1-one]
– | – | – | 432 | 2.9 | 14.4 | – | – | Cc1cc(-c2[nH]c3ccc(C4CCN(C5CCCNC5O)CC4)cc3c2C(C)C)ccn1 (stereo not drawn) [Example 702, 4-(3-isopropyl-2-(2-methylpyridin-4-yl)-1H-indol-5-yl)-[1,3′-bipiperidin]-2′-ol]
– | – | – | 6270 | 47 | 177 | – | – | CC(C)c1c(-c2cc(F)ncc2Cl)[nH]c2ccc(C3CCNCC3)cc12 [Example 18, 2-(5-chloro-2-fluoropyridin-4-yl)-3-isopropyl-5-(piperidin-4-yl)-1H-indole]
– | – | – | 13400 | 28.4 | 14.6 | – | – | Cc1cc(-c2[nH]c3ccc(C4CCN(C(=O)C5(O)CC5)CC4)cc3c2C(C)C)cc(C)n1 [Example 107, (4-(2-(2,6-dimethylpyridin-4-yl)-3-isopropyl-1H-indol-5-yl)piperidin-1-yl)(1-hydroxycyclopropyl)methanone]
– | – | – | 1690 | 6.7 | 3.4 | – | – | Cc1cc(-c2[nH]c3ccc(C4CCN(CCC(F)(F)F)CC4)cc3c2C(C)C)cc(C)n1 [Example 677, 2-(2,6-dimethylpyridin-4-yl)-3-isopropyl-5-(1-(3,3,3-trifluoropropyl)piperidin-4-yl)-1H-indole]
– | – | – | 11200 | 409 | 44.4 | – | – | Cc1cc(-c2[nH]c3ccc(C4CCN(C(=O)C5CCOC(C(C)C)C5)CC4)cc3c2C(C)C)cc(C)n1 (stereo not drawn) [Example 200, (4-(2-(2,6-dimethylpyridin-4-yl)-3-isopropyl-1H-indol-5-yl)piperidin-1-yl)(2-isopropyltetrahydro-2H-pyran-4-yl) methanone]
– | – | – | 1450 | 16.7 | 31.7 | – | – | CCOCCN1CCC(c2ccc3[nH]c(-c4ccnc(C)c4)c(C(C)C)c3c2)CC1 [Example 659, 5-(1-(2-ethoxyethyl)piperidin-4-yl)-3-isopropyl-2-(2-methylpyridin-4-yl)-1H-indole]
– | – | – | 3540 | 195 | 590 | – | – | CC(C)c1c(-c2ccncc2F)[nH]c2ccc(C3CCNCC3)cc12 [Example 7, 2-(3-fluoropyridin-4-yl)-3-isopropyl-5-(piperidin-4-yl)-1H-indole]
– | – | – | 331 | 13.8 | 7.1 | – | – | Cc1cc(-c2[nH]c3ccc(C4CCN(CC(=O)NC5CCC5)CC4)cc3c2C(C)C)cc(C)n1 [Example 213, N-cyclobutyl-2-(4-(2-(2,6-dimethylpyridin-4-yl)-3-isopropyl-1H-indol-5-yl)piperidin-1-yl) acetamide]
– | – | – | 440 | 2.7 | 1.4 | – | – | Cc1cc(-c2[nH]c3ccc(C4CCNCC4)c(F)c3c2C(C)C)ccn1 [Example 76, 4-fluoro-3-isopropyl-2-(2-methylpyridin-4-yl)-5-(piperidin-4-yl)-1H-indole]
– | – | – | 365 | 12.3 | 3.1 | – | – | CO[C@@H]1C[C@H](CO)N(C(=O)CN2CCC(c3ccc4[nH]c(-c5cc(C)nc(C)c5)c(C(C)C)c4c3)CC2)C1 [Example 292, 2-(4-(2-(2,6-dimethylpyridin-4-yl)-3-isopropyl-1H-indol-5-yl)piperidin-1-yl)-1-((2R,4R)-2-(hydroxymethyl)-4-methoxypyrrolidin-1-yl)ethan-1-one]
– | – | – | 5650 | 230 | 2070 | – | – | CC(C)c1c(-c2ccnc(C#N)c2C(F)(F)F)[nH]c2ccc(C3CCNCC3)cc12 [Example 33, 4-(3-isopropyl-5-(piperidin-4-yl)-1H-indol-2-yl)-3-(trifluoromethyl)picolinonitrile]
